Reference: patent US9776965B2, “Pyrrolidin-2-one and piperidin-2-one derivatives as 11-beta hydroxysteroid dehydrogenase inhibitors” (Janssen Pharmaceutica N.V., priority 2004, dated 2017)
pIC50: −log10 of the molar value.

Columns and labels:
[1] = molecular target: 11b-HSD1 (Homo sapiens, UniProt P28845); test: Enzymatic assay, 11b-HSD1 dependent conversion of cortisone into cortisol (reductase activity); type: biochemical; settings: recombinant protein, 2 μM cortisone, 45 min at 37 C; for pIC50: read-out: [C1] HSD1-prot Reduct Score
Method: The effects of compounds on 11b-HSD1 dependent conversion of cortisone into cortisol (reductase activity) was studied in a reaction mixture containing 30 mM Tris-HCl buffer pH 7.2, 180 μM NADPH, 1 mM EDTA, 2 μM cortisone, 1 μl drug and/or solvent and 11 μg recombinant protein in a final volume of 100 μl.
All incubations were performed for 45 min at 37 C in a water bath. The reaction was stopped by adding 100 μl acetonitrile containing 20 μg corticosterone as internal standard. After centrifugation, the product formation was analysed in the supernatant by HPLC on a Hypersyl BDS-C18 column using 0.05 mM ammonium acetate/methanol (50/50) as solvent. In all of the aforementioned assays, the drugs to be tested were taken from a stock solution and tested at a final concentration ranging from […] to 3.10^−9M. From the thus obtained dose response curves, the pIC50 value was calculated and scored as follows; Score 1=pIC50 value<5, Score 2=pIC50 value in the range of 5 to 6, Score 3=pIC50 value>6. (in this table NT stands for Not Tested).

[2] = molecular target: T1, 11b-HSD1 (Mus musculus, UniProt P50172); test: Cellular assay, 11b-HSD1 activity in differentiated 3T3-L1 cells; type: cell-based; settings: 4 hour pre-incubation; for pIC50: read-out: [C2] HSD1 cellular 3T3-L1 Score
T1 construct: Fibroblasts were differentiated into adipocytes; endogenous in cells; host or cells: differentiated 3T3-L1 cells (ATCC-CL-173)
Method: The effects on 11b-HSD1 activity was measured in differentiated 3T3-L1 cells and rat hepatocytes.
Mouse fibroblast 3T3-L1 cells (ATCC-CL-173) were seeded at a density of 16500 cells/ml in 12 well plates and grown for 7 days in DMEM medium (supplemented with 10% heat inactivated foetal calf serum, 2 mM glutamine and 25 mg gentamycin) at 37 C in a humidified 5% CO2 atmosphere. Medium was refreshed twice a week. Fibroblasts were differentiated into adipocytes at 37 C in a 5% CO2 humidified atmosphere in growth medium containing 2 μg/ml insulin, 55 μg/ml IBMX and 39.2 μg/ml dexamethasone.
Following a 4 hour pre-incubation with test compound, 0.5 μCi ^3H-cortisone or dehydrocorticosterone, was added to the cultures. One hour later, the medium was extracted on Extrelut^3-columns with 15 ml diethyl ether and the extract was analysed by HPLC as described above.
As for the enzymatic assays, the compounds to be tested were taken from a stock solution and tested at a final concentration ranging from […] to 3.10^−9M. From the thus obtained dose response curves, the pIC50 value was calculated and scored as follows; Score 1=pIC50 value<5, Score 2=pIC50 value in the range of 5 to 6, Score 3=pIC50 value>6. Some of the thus obtained results are summarized in the table below (in this table NT stands for Not Tested).

T1 sequence (P50172 whole entry): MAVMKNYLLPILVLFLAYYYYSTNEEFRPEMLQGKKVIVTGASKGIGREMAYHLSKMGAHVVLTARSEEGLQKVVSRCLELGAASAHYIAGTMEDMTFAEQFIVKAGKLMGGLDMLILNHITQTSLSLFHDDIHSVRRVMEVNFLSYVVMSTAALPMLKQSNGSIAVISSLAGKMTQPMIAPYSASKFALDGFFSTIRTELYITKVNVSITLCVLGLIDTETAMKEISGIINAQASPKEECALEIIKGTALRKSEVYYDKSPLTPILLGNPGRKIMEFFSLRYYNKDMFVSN
11b-HSD1 (Homo sapiens, UniProt P28845), sequence (P28845 whole entry): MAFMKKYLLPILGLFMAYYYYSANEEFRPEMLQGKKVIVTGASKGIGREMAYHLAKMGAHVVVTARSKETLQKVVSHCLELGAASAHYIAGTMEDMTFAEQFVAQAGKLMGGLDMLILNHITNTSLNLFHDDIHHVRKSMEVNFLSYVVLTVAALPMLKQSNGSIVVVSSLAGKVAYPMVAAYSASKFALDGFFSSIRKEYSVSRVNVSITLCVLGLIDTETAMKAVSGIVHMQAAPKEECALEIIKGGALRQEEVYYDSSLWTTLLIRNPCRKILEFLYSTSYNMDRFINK

Compound | pIC50 [1] | pIC50 [2] | [C1] HSD1-prot Reduct Score [1] | [C2] HSD1 cellular 3T3-L1 Score [2]
COc1ccccc1C[C@@H]1CCN([C@@H](C)c2ccccc2)C1=O [Compound 8] | 5.00 to 6.00 | 5.00 to 6.00 | – | –
Cc1ccccc1C[C@H]1CCN([C@H](C)c2ccccc2)C1=O [Compound 67] | 5.00 to 6.00 | > 6.00 | – | –
CC[C@]1(Cc2ccccc2C)CCN([C@H](C)c2ccccc2)C1=O [Compound 145] | < 5.00 | < 5.00 | – | –
C[C@@H](c1ccccc1)N1CC[C@@H](Cc2ccc3c(c2)OCO3)C1=O [Compound 153] | 5.00 to 6.00 | 5.00 to 6.00 | – | –
Cc1cccc(C)c1C[C@@H]1CCN([C@@H](C)c2ccccc2)C1=O [Compound 76] | – | – | 3 (Score 3=pIC50 value>6) | 2 (Score 2=pIC50 value in the range of 5 to 6)
C[C@H](c1ccccc1)N1CC[C@@H](Cc2ccccc2)C1=O [Compound 37] | < 5.00 | 5.00 to 6.00 | – | –
O=C1[C@H](Cc2c(Cl)cccc2Cl)CCN1[C@H](CO)c1ccccc1 [Compound 105] | > 6.00 | > 6.00 | – | –
C[C@@H](c1ccccc1)N1CC[C@@H]([C@](C)(O)c2ccc(CCBr)cc2)C1=O [Compound 118] | < 5.00 | 5.00 to 6.00 | – | –
Cc1cccc(C[C@@H]2CCN([C@H](C)c3ccccc3)C2=O)c1 [Compound 63] | < 5.00 | 5.00 to 6.00 | – | –
C[C@@H](c1ccccc1)N1CC[C@@H](Cc2cccc(Cl)c2)C1=O [Compound 18] | 5.00 to 6.00 | 5.00 to 6.00 | – | –
COc1cccc(C[C@@H]2CCN([C@H](C)c3ccccc3)C2=O)c1 [Compound 52] | < 5.00 | 5.00 to 6.00 | – | –
C[C@@H](c1ccccc1)N1CC[C@H](CCc2ccc(N(C)C)cc2)C1=O [Compound 131] | < 5.00 | 5.00 to 6.00 | – | –
COC[C@@H](c1ccccc1)N1CC[C@@H](Cc2c(Cl)cccc2Cl)C1=O [Compound 101] | < 5.00 | < 5.00 | – | –
COc1ccccc1CC[C@H]1CCN([C@@H](C)c2ccccc2)C1=O [Compound 124] | 5.00 to 6.00 | 5.00 to 6.00 | – | –
COC[C@@H](c1ccccc1)N1CC[C@H](Cc2c(Cl)cccc2Cl)C1=O [Compound 100] | 5.00 to 6.00 | < 5.00 | – | –
CC[C@H](c1ccccc1)N1CC[C@H](Cc2c(Cl)cccc2Cl)C1=O [Compound 96] | 5.00 to 6.00 | < 5.00 | – | –
O=C1C(Cc2c(Cl)cccc2Cl)CCN1CCc1ccc(F)cc1 (centres unmarked) [Compound 81] | < 5.00 | – | – | 3 (Score 3=pIC50 value>6)
Cc1cccc(C[C@H]2CCN([C@H](C)c3ccccc3)C2=O)c1 [Compound 68] | < 5.00 | 5.00 to 6.00 | – | –
Cc1ccccc1CC[C@H]1CCN([C@@H](C)c2ccccc2)C1=O [Compound 128] | 5.00 to 6.00 | 5.00 to 6.00 | – | –
COc1cccc(CC2CCN(Cc3ccccc3)C2=O)c1 (centres unmarked) [Compound 48] | < 5.00 | 5.00 to 6.00 | – | –

Compound | pIC50 [1] | pIC50 [2] | [C1] HSD1-prot Reduct Score [1] | [C2] HSD1 cellular 3T3-L1 Score [2]
COc1cccc(CC2CCN(CCc3ccccc3)C2=O)c1 (centres unmarked) [Compound 24] | 5.00 to 6.00 | < 5.00 | – | –
C[C@@H](c1ccccc1)N1CC[C@H](Cc2cccc(Cl)c2Cl)C1=O [Compound 11] | > 6.00 | 5.00 to 6.00 | – | –
C[C@@H](c1ccccc1)N1CC[C@@H](Cc2cc3c(cc2Cl)OCO3)C1=O [Compound 155] | > 6.00 | > 6.00 | – | –
C[C@H](c1ccccc1)[C@H]1CCN([C@@H](C)c2ccccc2)C1=O [Compound 159] | > 6.00 | > 6.00 | – | –
Cc1ccc([C@H](O)[C@H]2CCN([C@@H](C)c3ccccc3)C2=O)c(C)c1 [Compound 91] | 5.00 to 6.00 | > 6.00 | – | –
O=C1C(Cc2cccc(Cl)c2)CCN1Cc1ccccc1 (centres unmarked) [Compound 51] | < 5.00 | 5.00 to 6.00 | – | –
C[C@@H](C[C@@H]1CCN([C@@H](C)c2ccccc2)C1=O)c1ccccc1 [Compound 134] | > 6.00 | > 6.00 | – | –
C[C@@H](c1ccccc1)N1CC[C@H](CCc2c(F)cccc2Cl)C1=O [Compound 129] | 5.00 to 6.00 | 5.00 to 6.00 | – | –
COc1ccc(C[C@H]2CCN([C@@H](C)c3ccccc3)C2=O)c(Cl)c1OC [Compound 120] | 5.00 to 6.00 | > 6.00 | – | –
COc1ccccc1CC[C@@H]1CCN([C@@H](C)c2ccccc2)C1=O [Compound 123] | 5.00 to 6.00 | 5.00 to 6.00 | – | –
C[C@H](c1ccccc1)N1CC[C@@H](Cc2c(Cl)cccc2Cl)C1=O [Compound 44] | < 5.00 | 5.00 to 6.00 | – | –
C[C@H](c1ccccc1)N1CC[C@H](Cc2ccccc2C#N)C1=O [Compound 64] | < 5.00 | 5.00 to 6.00 | – | –
O=C1C(Cc2ccc(F)cc2Cl)CCN1CCc1ccccc1 (centres unmarked) [Compound 85] | 5.00 to 6.00 | < 5.00 | – | –
Cc1ccc(CCN2CCC(Cc3c(Cl)cccc3Cl)C2=O)cc1 (centres unmarked) [Compound 93] | < 5.00 | < 5.00 | – | –
C[C@@H](c1ccccc1)N1CC[C@@H](Cc2ccc(F)cc2Cl)C1=O [Compound 151] | > 6.00 | > 6.00 | – | –
Cc1ccc(CC2CCN(Cc3ccccc3)C2=O)cc1 (centres unmarked) [Compound 25] | < 5.00 | > 6.00 | – | –
CC[C@@H](c1ccccc1)N1CC[C@@H](Cc2c(Cl)cccc2Cl)C1=O [Compound 95] | > 6.00 | 5.00 to 6.00 | – | –
COc1cc(CC2(Cc3ccc(OCc4ccccc4)c(OC)c3)CCN(CCc3ccccc3)C2=O)ccc1OCc1ccccc1 [Compound 164] | < 5.00 | < 5.00 | – | –
O=C1C(Cc2ccc(F)cc2F)CCN1CCc1ccccc1 (centres unmarked) [Compound 108] | 5.00 to 6.00 | 5.00 to 6.00 | – | –
CCCC1(Cc2ccccc2C)CCN([C@@H](C)c2ccccc2)C1=O (mixture of isomers) [Compound 146] | < 5.00 | < 5.00 | – | –

Compound | pIC50 [1] | pIC50 [2] | [C1] HSD1-prot Reduct Score [1] | [C2] HSD1 cellular 3T3-L1 Score [2]
Cc1ccccc1C[C@]1(C)CCN([C@@H](C)c2ccccc2)C1=O [Compound 142] | < 5.00 | 5.00 to 6.00 | – | –
N#Cc1ccccc1CC1CCN(CCc2ccccc2)C1=O (centres unmarked) [Compound 23] | 5.00 to 6.00 | > 6.00 | – | –
O=C1[C@@H](Cc2c(Cl)cccc2Cl)CCN1[C@@H](CO)c1ccccc1 [Compound 106] | 5.00 to 6.00 | < 5.00 | – | –
COc1cccc(C[C@H]2CCN([C@H](C)c3ccccc3)C2=O)c1 [Compound 66] | < 5.00 | 5.00 to 6.00 | – | –
COc1ccccc1C[C@H]1CCN([C@H](C)c2ccccc2)C1=O [Compound 39] | < 5.00 | 5.00 to 6.00 | – | –
C[C@H](c1ccccc1)[C@@H]1CCN([C@@H](C)c2ccccc2)C1=O [Compound 161] | 5.00 to 6.00 | < 5.00 | – | –
CC[C@H](C[C@@H]1CCN([C@@H](C)c2ccccc2)C1=O)c1ccccc1 [Compound 138] | 5.00 to 6.00 | 5.00 to 6.00 | – | –
Cc1ccccc1CC1CCCN(CCc2ccccc2)C1=O (centres unmarked) [Compound 87] | < 5.00 | 5.00 to 6.00 | – | –
CCC(CC1(CC(CC)c2ccccc2)CCN([C@@H](C)c2ccccc2)C1=O)c1ccccc1 (mixture of isomers) [Compound 165] | < 5.00 | < 5.00 | – | –
O=C1C(Cc2c(Cl)cccc2Cl)CCN1CCc1ccc(Br)cc1 (centres unmarked) [Compound 82] | > 6.00 | 5.00 to 6.00 | – | –
Cc1ccccc1CC1CCN(CCCc2ccccc2)C1=O (centres unmarked) [Compound 110] | 5.00 to 6.00 | 5.00 to 6.00 | – | –
Cc1ccccc1C[C@@H]1CCN([C@H](C)c2ccccc2)C1=O [Compound 62] | < 5.00 | 5.00 to 6.00 | – | –
COc1cc(C[C@@H]2CCN([C@@H](C)c3ccccc3)C2=O)ccc1OCc1ccccc1 [Compound 121] | < 5.00 | < 5.00 | – | –
COc1ccc(C[C@@H]2CCN([C@H](C)c3ccccc3)C2=O)cc1 [Compound 50] | < 5.00 | 5.00 to 6.00 | – | –
CC[C@@H](c1ccccc1)N1CC[C@H](Cc2c(Cl)cccc2Cl)C1=O [Compound 94] | < 5.00 | > 6.00 | – | –
O=C1C(Cc2cccc(O)c2)CCN1Cc1ccccc1 (centres unmarked) [Compound 53] | < 5.00 | 5.00 to 6.00 | – | –
COc1ccc(CC[C@H]2CCN([C@@H](C)c3ccccc3)C2=O)cc1OC [Compound 126] | < 5.00 | < 5.00 | – | –
C[C@@H](c1ccccc1)N1CCC(C)(c2ccccc2)C1=O (some centres unmarked) [Compound 166] | – | 5.00 to 6.00 | – | –
C[C@H](c1ccccc1)N1CCC(C)(c2ccccc2)C1=O (some centres unmarked) [Compound 167] | – | < 5.00 | – | –
